This assay has as its target T1, BRM (Homo sapiens, UniProt P51531).
T1 construct: In-Cell Western Screen of BRM Degradation in SW1573 Cells; endogenous in cells; host or cells: SW1573
The assay can be described thus: In-cell Western screen of BRM degradation in SW1573 cells (Dmax and DC50). As to conditions: BRM degradation, SW1573 cells; for Dmax: read-out: Dmax (% degraded). The format is cell-based. The gist of the method: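 SW1573 cells were treated overnight (18-20 hours) with compound at 0.1% final DMSO. They were then PFA-fixed, permeabilised with Triton X-100 and immunostained with 800 nm/680 nm secondary antibodies. BRM signal was quantified by LI-COR in-cell Western imaging to derive Dmax and DC50.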

Where two headings read alike, the source gives them in different places.

T1 sequence (P51531 whole entry): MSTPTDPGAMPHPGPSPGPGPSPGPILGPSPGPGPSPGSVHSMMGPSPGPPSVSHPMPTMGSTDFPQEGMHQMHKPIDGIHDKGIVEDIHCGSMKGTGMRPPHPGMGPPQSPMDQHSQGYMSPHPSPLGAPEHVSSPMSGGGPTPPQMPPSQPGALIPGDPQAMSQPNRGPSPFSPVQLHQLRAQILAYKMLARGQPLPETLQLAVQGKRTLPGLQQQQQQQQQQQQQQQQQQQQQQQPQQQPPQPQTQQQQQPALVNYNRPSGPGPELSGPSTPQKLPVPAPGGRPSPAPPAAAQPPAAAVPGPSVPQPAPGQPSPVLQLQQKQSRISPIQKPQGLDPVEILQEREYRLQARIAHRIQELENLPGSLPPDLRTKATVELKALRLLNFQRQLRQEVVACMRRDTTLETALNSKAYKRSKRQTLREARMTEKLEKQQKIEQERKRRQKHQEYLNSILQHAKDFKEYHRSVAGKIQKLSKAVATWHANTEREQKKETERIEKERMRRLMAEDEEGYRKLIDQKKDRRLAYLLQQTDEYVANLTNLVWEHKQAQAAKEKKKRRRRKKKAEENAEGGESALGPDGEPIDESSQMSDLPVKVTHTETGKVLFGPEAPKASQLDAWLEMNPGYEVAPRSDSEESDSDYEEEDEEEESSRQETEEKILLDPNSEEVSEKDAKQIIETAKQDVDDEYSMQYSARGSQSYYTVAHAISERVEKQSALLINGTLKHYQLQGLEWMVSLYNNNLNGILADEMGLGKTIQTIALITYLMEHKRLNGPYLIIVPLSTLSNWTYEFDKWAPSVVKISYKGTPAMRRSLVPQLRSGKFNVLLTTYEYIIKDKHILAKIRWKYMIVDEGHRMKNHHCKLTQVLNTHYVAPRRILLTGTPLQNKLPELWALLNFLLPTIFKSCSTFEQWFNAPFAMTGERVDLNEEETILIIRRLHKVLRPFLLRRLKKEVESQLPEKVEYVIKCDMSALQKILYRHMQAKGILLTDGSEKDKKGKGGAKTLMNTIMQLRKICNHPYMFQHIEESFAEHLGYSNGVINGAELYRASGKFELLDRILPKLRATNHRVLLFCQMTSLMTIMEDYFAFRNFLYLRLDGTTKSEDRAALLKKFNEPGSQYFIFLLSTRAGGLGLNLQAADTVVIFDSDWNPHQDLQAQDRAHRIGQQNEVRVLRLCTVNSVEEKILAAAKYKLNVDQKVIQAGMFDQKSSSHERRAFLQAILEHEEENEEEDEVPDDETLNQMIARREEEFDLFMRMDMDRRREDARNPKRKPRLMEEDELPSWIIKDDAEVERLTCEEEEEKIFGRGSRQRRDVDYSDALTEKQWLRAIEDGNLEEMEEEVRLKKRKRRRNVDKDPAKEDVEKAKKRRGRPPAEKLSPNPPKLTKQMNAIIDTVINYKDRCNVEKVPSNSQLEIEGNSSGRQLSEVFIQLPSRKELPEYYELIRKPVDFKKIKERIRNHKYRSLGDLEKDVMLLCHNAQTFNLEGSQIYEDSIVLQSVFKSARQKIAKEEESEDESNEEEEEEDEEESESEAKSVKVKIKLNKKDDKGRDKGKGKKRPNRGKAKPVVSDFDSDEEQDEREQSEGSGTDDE

A word on the DC50: it is the midpoint of the concentration-degradation curve. Take `Cc1ncsc1-c1ccc([C@H](CCCC(=O)O)NC(=O)[C@@H]2C[C@@H](O)CN2C(=O)C(c2cc(OCCN3CCC(O[C@H]4C[C@H](Oc5cc(N6C7CCC6CN(c6cc(-c8ccccc8O)nnc6N)C7)ccn5)C4)CC3)no2)C(C)C)cc1` (stereo partly drawn) [compound 687, (5S)-5-((2S,4R)-1-(2-(3-(2-(4-((1r,3r)-3-((4-(3-(3-amino-6-(2-hydroxyphenyl)pyridazin-4-yl)-3,8-diazabicyclo[3.2.1]octan-8-yl)pyridin-2-yl)oxy)cyclobutoxy)piperidin-1-yl)ethoxy)isoxazol-5-yl)-3-methylbutanoyl)-4-hydroxypyrrolidine-2-carboxamido)-5-(4-(4-methylthiazol-5-yl)phenyl)pentanoic acid]: the DC50 (read-out: DC50) is above 30 nM.
As for `Cc1ncsc1-c1ccc([C@H](C)NC(=O)[C@@H]2C[C@@H](O)CN2C(=O)[C@H](c2cc(N3CCC4(CCN(CC5CCN(C[C@H]6C[C@H](Oc7cc(N8C9CCC8CN(c8cc(-c%10ccccc%10O)nnc8N)C9)ccn7)C6)CC5)CC4)CC3)no2)C(C)C)cc1` [compound 688, (2S,4R)-1-((2S)-2-(3-(9-((1-(((1r,3r)-3-((4-(3-(3-amino-6-(2-hydroxyphenyl)pyridazin-4-yl)-3,8-diazabicyclo[3.2.1]octan-8-yl)pyridin-2-yl)oxy)cyclobutyl)methyl)piperidin-4-yl)methyl)-3,9-diazaspiro[5.5]undecan-3-yl)isoxazol-5-yl)-3-methylbutanoyl)-4-hydroxy-N-((S)-1-(4-(4-methylthiazol-5-yl)phenyl)ethyl)pyrrolidine-2-carboxamide], the DC50 (read-out: DC50) was above 30 nM.
In general, Dmax refers to the largest share of the target that was removed. Consider `Cc1ncsc1-c1ccc([C@H](C)NC(=O)[C@@H]2C[C@@H](O)CN2C(=O)[C@@H](c2cc(N3CCC4(CCN(CC5CCN(C[C@H]6C[C@H](Oc7cc(N8C9CCC8CN(c8cc(-c%10ccccc%10O)nnc8N)C9)ccn7)C6)CC5)CC4)CC3)no2)C(C)C)cc1` [compound 689, (2S,4R)-1-((2R)-2-(3-(9-((1-(((1r,3r)-3-((4-(3-(3-amino-6-(2-hydroxyphenyl)pyridazin-4-yl)-3,8-diazabicyclo[3.2.1]octan-8-yl)pyridin-2-yl)oxy)cyclobutyl)methyl)piperidin-4-yl)methyl)-3,9-diazaspiro[5.5]undecan-3-yl)isoxazol-5-yl)-3-methylbutanoyl)-4-hydroxy-N-((S)-1-(4-(4-methylthiazol-5-yl)phenyl)ethyl)pyrrolidine-2-carboxamide], for which the Dmax is above 75%. For the same compound, the DC50 (read-out: DC50) is below 2.5 nM.
As for `Cc1ncsc1-c1ccc([C@H](C)NC(=O)[C@@H]2C[C@@H](O)CN2C(=O)[C@@H](c2cc(N3CCC(CN4CCC(O[C@H]5C[C@H](Oc6cc(N7C8CCC7CN(c7cc(-c9ccccc9O)nnc7N)C8)ccn6)C5)CC4)CC3)no2)C(C)C)c(O)c1` [compound 690, (2S,4R)-1-((2R)-2-(3-(4-((4-((1r,3r)-3-((4-(3-(3-amino-6-(2-hydroxyphenyl)pyridazin-4-yl)-3,8-diazabicyclo[3.2.1]octan-8-yl)pyridin-2-yl)oxy)cyclobutoxy)piperidin-1-yl)methyl)piperidin-1-yl)isoxazol-5-yl)-3-methylbutanoyl)-4-hydroxy-N-((S)-1-(2-hydroxy-4-(4-methylthiazol-5-yl)phenyl)ethyl)pyrrolidine-2-carboxamide], the Dmax is above 75%. The DC50 (read-out: DC50) is below 2.5 nM.
As for `Cc1ncsc1-c1ccc([C@H](C)NC(=O)[C@@H]2C[C@@H](O)CN2C(=O)[C@@H](c2cc(N3CCC(CN4CCC(OC5CC(Oc6cc(N7C8CC[C@@H]7CN(c7cc(-c9ccccc9O)nnc7N)C8)ccn6)C5)CC4)CC3)no2)C(C)C)cc1O` (stereo partly drawn) [compound 691, (2S,4R)-1-((2R)-2-(3-(4-((4-((1r,3r)-3-((4-(3-(3-amino-6-(2-hydroxyphenyl)pyridazin-4-yl)-3,8-diazabicyclo[3.2.1]octan-8-yl)pyridin-2-yl)oxy)cyclobutoxy)piperidin-1-yl)methyl)piperidin-1-yl)isoxazol-5-yl)-3-methylbutanoyl)-4-hydroxy-N-((S)-1-(3-hydroxy-4-(4-methylthiazol-5-yl)phenyl)ethyl)pyrrolidine-2-carboxamide], the “Dmax (% degraded)” value is listed as “A (A > 75)”. For the setting “read-out: DC50”, the DC50 was below 2.5 nM.
As for `Cc1ncsc1-c1ccc([C@H](C)NC(=O)[C@@H]2C[C@@H](O)CN2C(=O)C(c2cc(N3CCC(C(C)(C)N4CCC(O[C@H]5C[C@H](Oc6cc(N7C8CCC7CN(c7cc(-c9ccccc9O)nnc7N)C8)ccn6)C5)CC4)CC3)no2)C(C)C)cc1` (stereo partly drawn) [compound 692, (2S,4R)-1-(2-(3-(4-(2-(4-((1r,3r)-3-((4-(3-(3-amino-6-(2-hydroxyphenyl)pyridazin-4-yl)-3,8-diazabicyclo[3.2.1]octan-8-yl)pyridin-2-yl)oxy)cyclobutoxy)piperidin-1-yl)propan-2-yl)piperidin-1-yl)isoxazol-5-yl)-3-methylbutanoyl)-4-hydroxy-N-((S)-1-(4-(4-methylthiazol-5-yl)phenyl)ethyl)pyrrolidine-2-carboxamide], the Dmax was above 75%. For the same compound, the DC50 (read-out: DC50) was below 2.5 nM.
Regarding `Cc1ncsc1-c1ccc([C@H](C)NC(=O)[C@@H]2C[C@@H](O)CN2C(=O)[C@@H](c2cc(N3CCC(CN4CCC(O[C@H]5C[C@H](Oc6cc(N7CCN(c8cc(-c9ccccc9O)nnc8N)CC7)ccn6)C5)CC4)CC3)no2)C(C)C)cc1` [compound 693, (2S,4R)-1-((R)-2-(3-(4-((4-((1r,3r)-3-((4-(4-(3-amino-6-(2-hydroxyphenyl)pyridazin-4-yl)piperazin-1-yl)pyridin-2-yl)oxy)cyclobutoxy)piperidin-1-yl)methyl)piperidin-1-yl)isoxazol-5-yl)-3-methylbutanoyl)-4-hydroxy-N-((S)-1-(4-(4-methylthiazol-5-yl)phenyl)ethyl)pyrrolidine-2-carboxamide], the DC50 was below 2.5 nM.
Turning to `Cc1ncsc1-c1ccc([C@H](C)NC(=O)[C@@H]2C[C@@H](O)CN2C(=O)[C@H](c2cc(N3CCC4(CC3)CN(CC3CCN(C[C@H]5C[C@H](Oc6cc(N7C8CCC7CN(c7cc(-c9ccccc9O)nnc7N)C8)ccn6)C5)CC3)C4)no2)C(C)C)cc1` [compound 694, (2S,4R)-1-((2S)-2-(3-(2-((1-(((1r,3r)-3-((4-(3-(3-amino-6-(2-hydroxyphenyl)pyridazin-4-yl)-3,8-diazabicyclo[3.2.1]octan-8-yl)pyridin-2-yl)oxy)cyclobutyl)methyl)piperidin-4-yl)methyl)-2,7-diazaspiro[3.5]nonan-7-yl)isoxazol-5-yl)-3-methylbutanoyl)-4-hydroxy-N-((S)-1-(4-(4-methylthiazol-5-yl)phenyl)ethyl)pyrrolidine-2-carboxamide], the DC50 (read-out: DC50) was above 30 nM.
With `Cc1ncsc1-c1ccc([C@H](C)NC(=O)[C@@H]2C[C@@H](O)CN2C(=O)[C@@H](c2cc(N3CCC4(CC3)CN(CC3CCN(C[C@H]5C[C@H](Oc6cc(N7C8CCC7CN(c7cc(-c9ccccc9O)nnc7N)C8)ccn6)C5)CC3)C4)no2)C(C)C)cc1` [compound 695, (2S,4R)-1-((2R)-2-(3-(2-((1-(((1r,3r)-3-((4-(3-(3-amino-6-(2-hydroxyphenyl)pyridazin-4-yl)-3,8-diazabicyclo[3.2.1]octan-8-yl)pyridin-2-yl)oxy)cyclobutyl)methyl)piperidin-4-yl)methyl)-2,7-diazaspiro[3.5]nonan-7-yl)isoxazol-5-yl)-3-methylbutanoyl)-4-hydroxy-N-((S)-1-(4-(4-methylthiazol-5-yl)phenyl)ethyl)pyrrolidine-2-carboxamide], the maximal degradation (Dmax) is above 75%. Also, the DC50 (read-out: DC50) was below 2.5 nM.
As to `Cc1ncsc1-c1ccc([C@H](C)NC(=O)[C@@H]2C[C@@H](O)CN2C(=O)[C@H](c2cc(N3CCC(CN4CCC(O[C@H]5C[C@H](Oc6cc(N7C8CCC7CN(c7cc(-c9ccccc9O)nnc7N)C8)ccn6)C5)CC4)CC3)no2)C(C)C)c(O)c1` [compound 696, (2S,4R)-1-((2S)-2-(3-(4-((4-((1r,3r)-3-((4-(3-(3-amino-6-(2-hydroxyphenyl)pyridazin-4-yl)-3,8-diazabicyclo[3.2.1]octan-8-yl)pyridin-2-yl)oxy)cyclobutoxy)piperidin-1-yl)methyl)piperidin-1-yl)isoxazol-5-y1)-3-methylbutanoyl)-4-hydroxy-N-((S)-1-(2-hydroxy-4-(4-methylthiazol-5-yl)phenyl)ethyl)pyrrolidine-2-carboxamide], under “read-out: DC50”, the 50% degradation concentration (DC50) is above 30 nM.
For `Cc1ncsc1-c1ccc([C@H](C)NC(=O)[C@@H]2C[C@@H](O)CN2C(=O)[C@@H](c2cc(N3CCC(CN4CCC(O[C@H]5C[C@H](C#Cc6cc(N7C8CCC7CN(c7cc(-c9ccccc9O)nnc7N)C8)ccn6)C5)CC4)CC3)no2)C(C)C)cc1` [compound 699, (2S,4R)-1-((2R)-2-(3-(4-((4-((1r,3r)-3-((4-(3-(3-amino-6-(2-hydroxyphenyl)pyridazin-4-yl)-3,8-diazabicyclo[3.2.1]octan-8-yl)pyridin-2-yl)ethynyl)cyclobutoxy)piperidin-1-yl)methyl)piperidin-1-yl)isoxazol-5-yl)-3-methylbutanoyl)-4-hydroxy-N-((S)-1-(4-(4-methylthiazol-5-yl)phenyl)ethyl)pyrrolidine-2-carboxamide], the Dmax is above 75%. Further, under “read-out: DC50”, the DC50 is below 2.5 nM.
For `Cc1ncsc1-c1ccc([C@H](C)NC(=O)[C@@H]2C[C@@H](O)CN2C(=O)[C@H](c2cc(N3CCC(CN4CCC(O[C@H]5C[C@H](Oc6cc(N7C8CCC7CN(c7cc(-c9ccccc9O)nnc7N)C8)ccn6)C5)CC4)CC3)no2)C(C)C)cc1O` [compound 700, (2S,4R)-1-((2S)-2-(3-(4-((4-((1r,3r)-3-((4-(3-(3-amino-6-(2-hydroxyphenyl)pyridazin-4-yl)-3,8-diazabicyclo[3.2.1]octan-8-yl)pyridin-2-yl)oxy)cyclobutoxy)piperidin-1-yl)methyl)piperidin-1-yl)isoxazol-5-yl)-3-methylbutanoyl)-4-hydroxy-N-((S)-1-(3-hydroxy-4-(4-methylthiazol-5-yl)phenyl)ethyl)pyrrolidine-2-carboxamide], where the note is “read-out: DC50”, the DC50 is above 30 nM.
